One assay addresses T1, hLBAT (Homo sapiens, UniProt Q14973).
T1 construct: expressed in transfected cells; kept under Geneticin selection
T1 sequence (Q14973 1-349): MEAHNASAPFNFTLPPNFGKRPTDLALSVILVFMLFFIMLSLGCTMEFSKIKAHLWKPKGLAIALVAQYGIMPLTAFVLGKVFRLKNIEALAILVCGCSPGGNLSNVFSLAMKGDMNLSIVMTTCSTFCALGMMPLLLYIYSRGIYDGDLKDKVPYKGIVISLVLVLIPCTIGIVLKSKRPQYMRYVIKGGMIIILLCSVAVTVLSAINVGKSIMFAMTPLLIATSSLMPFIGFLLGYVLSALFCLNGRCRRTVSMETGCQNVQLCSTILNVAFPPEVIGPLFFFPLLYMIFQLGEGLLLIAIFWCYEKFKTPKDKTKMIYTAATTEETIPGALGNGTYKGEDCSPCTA
The experiment in a line: LBAT (h/m) assay: 3H-taurocholic acid uptake in human LBAT-overexpressing cells. Type of assay: cell-based. Particulars: 0.3 μM 3H-taurocholic acid + 7.5 μM cold taurocholic acid, 20 minutes at 37° C. Here is the method:
LBAT (h/m) Assay Protocol
20,000 cells (Human or Mouse LBAT-overexpressing cells) were seeded in 96-wells plate (Corning CLS3809) in 100 μL MEM-alpha medium (Gibco 12571-063) supplemented with 10% FBS (Gibco 10438026) containing Geneticin (Gibco 10131-027) (1 mg/mL) and incubated at 37° C. in 5% CO2 for 24 hours. After incubation, media was decanted from the wells and cells were washed two times with 300 μL of basal MEM-alpha medium (FBS-free). After decanting basal MEM-alpha medium each time, plates were tapped against paper towel to ensure maximum removal of residual media. For human LBAT, incubation mix was prepared by adding test inhibitor dilutions (3-fold serial dilution in DMSO (Sigma D2650), 10 points) in MEM-alpha (without FBS) containing 0.3 μM 3H-taurocholic acid (ARC ART-1368) and 7.5 μM cold taurocholic acid (Sigma T4009) (maintaining 0.2% final DMSO concentration). For mouse LBAT, incubation mix was prepared by adding test inhibitor dilutions (3-fold serial dilution in DMSO, 10 points) in MEM-alpha (without FBS) containing 0.3 μM 3H-taurocholic acid and 25 μM cold taurocholic acid maintaining 0.2% final DMSO concentration). 50 μL of incubation mix containing test inhibitors was then added to the wells (in duplicate) and the plates were incubated for 20 minutes in a CO2 incubator at 37° C. After incubation, the reaction was stopped by keeping the plates on ice water mix for 2-3 minutes and then the incubation mix was aspirated completely from the wells. The wells were washed two times with 250 μL of chilled unlabelled 1 mM taurocholic acid dissolved in HEPES (Gibco 15630080)-buffered (10 mM) HBSS (Gibco 14175079) (pH 7.4). The plates were tapped against a paper towel after every wash to ensure maximum removal of blocking buffer.
100 μL of MicroScint-20 (PerkinElmer 6013621) was added to the wells and kept overnight at RT before reading the plates in TopCount NXT™ Microplate Scintillation and Luminescence Counter from PerkinElmer under 3H Test protocol (set at 120 seconds reading time per well, with normal plate orientation).
(§1) Preparation of Test Compound Dilutions
(§2) All test compounds were provided in powder form at RT. 10 mM DMSO stocks of the test compounds were prepared, aliquoted and stored at −20° C. From the 10 mM DMSO stock of the compounds, a 3-fold serial dilution in DMSO was prepared to get a total of 10 dilutions of the test compounds. 0.5 μL of this dilution in DMSO was added to 250 μL of FBS-free basal media containing 3H-taurocholic acid and cold taurocholic acid to prepare the incubation mixture.

The next assay concerns the target T2, hIBAT (Homo sapiens, UniProt Q12908).
T2 construct: expressed in transfected cells; kept under Puromycin selection
T2 sequence (Q12908 1-348): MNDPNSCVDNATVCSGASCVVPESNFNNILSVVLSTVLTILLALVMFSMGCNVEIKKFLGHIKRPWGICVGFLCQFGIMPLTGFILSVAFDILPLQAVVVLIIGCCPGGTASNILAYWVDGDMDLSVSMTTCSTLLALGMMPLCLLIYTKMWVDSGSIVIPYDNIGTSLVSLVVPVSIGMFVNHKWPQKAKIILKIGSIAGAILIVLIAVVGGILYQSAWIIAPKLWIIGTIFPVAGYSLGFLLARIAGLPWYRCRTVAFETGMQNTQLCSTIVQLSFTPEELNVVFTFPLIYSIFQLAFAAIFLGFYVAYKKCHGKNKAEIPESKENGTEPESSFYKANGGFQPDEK
Kind of assay: IBAT (h/m) assay: 3H-taurocholic acid uptake in human IBAT-overexpressing cells. Type of assay: cell-based. The settings on record: 0.25 μM 3H-taurocholic acid + 5 μM cold taurocholic acid, 20 minutes at 37° C., highest test concentration 10 μM. Here is the method: IBAT (h/m) Assay Protocol
10,000 cells (Human or Mouse IBAT-overexpressing cells) were seeded in 96-wells plate (Corning CLS3809) in 200 μL MEM-alpha medium (Gibco 12571-063) supplemented with 10% FBS (Gibco 10438026) containing Puromycin (Gibco A1113803) (10 μg/mL) and incubated at 37° C. in 5% CO2 for 48 hours. After incubation, media was decanted from the wells and cells were washed two times with 300 μL of basal MEM-alpha medium (FBS-free). After decanting basal MEM-alpha medium each time, plates were tapped against paper towel to ensure maximum removal of residual media. Test inhibitor dilutions (highest test concentration being 10 μM, 3-fold serial dilution, 10 points) prepared in DMSO (Sigma D2650) were added in incubation mix (maintaining 0.2% final DMSO concentration) containing 0.25 μM 3H-taurocholic acid (ARC ART-1368) and 5 μM of cold taurocholic acid (Sigma T4009). 50 μL of incubation mix containing test inhibitors was then added to the wells (in duplicate) and the plates were incubated for 20 minutes in a CO2 incubator at 37° C. After incubation, the reaction was stopped by keeping the plates on ice water mix for 2-3 minutes and then the incubation mix was aspirated completely from the wells. The wells were washed two times with 250 μL of chilled unlabelled 1 mM taurocholic acid dissolved in HEPES (Gibco 15630080)-buffered (10 mM) HBSS (Gibco 14175079) (pH 7.4). The plates were tapped against a paper towel after every wash to ensure maximum removal of blocking buffer.
100 μL of MicroScint-20 (PerkinElmer 6013621) was added to the wells and kept overnight at RT before reading the plates in TopCount NXT™ Microplate Scintillation and Luminescence Counter from PerkinElmer under 3H Test protocol (set at 120 seconds reading time per well).
as §1, §2

pIC50: −log10 of the molar value.

Consider `CCCCC1(CC)CN(c2ccccc2)c2cc(SC)c(CSCC(=O)O)cc2S(=O)(=O)C1` (racemic) [Example 1, 2-(((3-butyl-3-ethyl-7-(methylthio)-1,1-dioxido-5-phenyl-2,3,4,5-tetrahydro-1,5-benzothiazepin-8-yl)methyl)thio)acetic acid], for which, on hLBAT, the pIC50 was 5.42.
For `CCCCC1(C)CN(c2ccccc2)c2cc(SC)c(CSCC(=O)O)cc2S(=O)(=O)C1` (racemic) [Example 4, 2-(((3-butyl-3-methyl-7-(methylthio)-1,1-dioxido-5-phenyl-2,3,4,5-tetrahydro-1,5-benzothiazepin-8-yl)methyl)thio)acetic acid], the pIC50 on hLBAT was 5.14; on hIBAT it was 9.10.
Taken in the same sequence, the figures for `CCCCC1(CC)CN(c2ccc(F)cc2)c2cc(SC)c(CSCC(=O)O)cc2S(=O)(=O)C1` (racemic) [Example 6, 2-(((3-butyl-3-ethyl-5-(4-fluorophenyl)-7-(methylthio)-1,1-dioxido-2,3,4,5-tetrahydro-1,5-benzothiazepin-8-yl)methyl)thio)acetic acid] were below 5.66 and 9.22.
The corresponding values for `CCCCC1(CC)CN(c2ccccc2)c2cc(SC)c(CSCC(=O)O)cc2S(=O)(=O)N1` (racemic) [Example 9, 2-(((3-butyl-3-ethyl-7-(methylthio)-1,1-dioxido-5-phenyl-2,3,4,5-tetrahydro-1,2,5-benzothiadiazepin-8-yl)methyl)thio)acetic acid] are below 5.48 and 9.30.
The corresponding values for `CCCCC1CN(c2ccccc2)c2cc(SC)c(CSCC(=O)O)cc2S(=O)(=O)N1C` (racemic) [Example 11, 2-(((3-butyl-2-methyl-7-(methylthio)-1,1-dioxido-5-phenyl-2,3,4,5-tetrahydro-1,2,5-benzothiadiazepin-8-yl)methyl)thio)acetic acid] are 7.47 and 7.15.
For `CCCCC1(CC)CN(c2ccccc2)c2cc(OC)c(CSCC(=O)O)cc2S(=O)(=O)C1` (racemic) [Example 13, 2-(((3-Butyl-3-ethyl-7-methoxy-1,1-dioxido-5-phenyl-2,3,4,5-tetrahydro-1,5-benzothiazepin-8-yl)methyl)thio)acetic acid], the pIC50 on hIBAT was 8.64.
With `CCCCC1(CC)CN(c2ccc(F)cc2)c2cc(SC)c(CSC(C)(C)C(=O)O)cc2S(=O)(=O)C1` (racemic) [Example 15, 2-(((3-Butyl-3-ethyl-5-(4-fluorophenyl)-7-(methylthio)-1,1-dioxido-2,3,4,5-tetrahydro-1,5-benzothiazepin-8-yl)methyl)thio)-2-methylpropanoic acid], the results for the pIC50 at hLBAT and on hIBAT were 6.75 and 7.22, respectively.
The corresponding values for `CCCCC1(C)CN(c2ccccc2)c2cc(SC)c(CSC(C)(C)C(=O)O)cc2S(=O)(=O)C1` (racemic) [Example 18, 2-(((3-Butyl-3-methyl-7-(methylthio)-1,1-dioxido-5-phenyl-2,3,4,5-tetrahydro-1,5-benzothiazepin-8-yl)methyl)thio)-2-methylpropanoic acid] are 6.87 and 6.39.
Taken in the same sequence, the figures for `CCCCC1(CC)CN(c2ccccc2)c2cc(OC)c(CSC(C)(C)C(=O)O)cc2S(=O)(=O)C1` (racemic) [Example 25, 2-(((3-butyl-3-ethyl-7-methoxy-1,1-dioxido-5-phenyl-2,3,4,5-tetrahydro-1,5-benzothiazepin-8-yl)methyl)thio)-2-methylpropanoic acid] were 6.87 and 6.66.
As for `CCCCC1(C)CN(c2ccccc2)c2cc(OC)c(CSCC(=O)O)cc2S(=O)(=O)C1` (racemic) [Example 27, 2-(((3-butyl-7-methoxy-3-methyl-1,1-dioxido-5-phenyl-2,3,4,5-tetrahydro-1,5-benzothiazepin-8-yl)methyl)thio)acetic acid], the pIC50 on hLBAT was below 5.00; on hIBAT, 7.85.
Taken in the same sequence, the figures for `CCCCC1CN(c2ccc(F)cc2)c2cc(OC)c(CSCC(=O)O)cc2S(=O)(=O)N1C` (racemic) [Example 29, 2-(((3-butyl-5-(4-fluorophenyl)-7-methoxy-2-methyl-1,1-dioxido-2,3,4,5-tetrahydro-1,2,5-benzothiadiazepin-8-yl)methyl)thio)acetic acid] were 6.97 and 6.25.
As for `CCCCC1(CC)CN(c2ccc(F)cc2)c2cc(OC)c(CSC(C)(C)C(=O)O)cc2S(=O)(=O)C1` (racemic) [Example 33, 2-(((3-butyl-3-ethyl-5-(4-fluorophenyl)-7-methoxy-1,1-dioxido-2,3,4,5-tetrahydro-1,5-benzothiazepin-8-yl)methyl)thio)-2-methylpropanoic acid], the pIC50 was 6.82 on hLBAT and 6.53 on hIBAT.
As for `CCCCC1CN(c2ccccc2)c2cc(OC)c(CSCC(=O)O)cc2S(=O)(=O)N1C` (racemic) [Example 35, 2-(((3-butyl-7-methoxy-2-methyl-1,1-dioxido-5-phenyl-2,3,4,5-tetrahydro-1,2,5-benzothiadiazepin-8-yl)methyl)thio)acetic acid], the pIC50 on hLBAT was 6.44; on hIBAT, 5.51.
As for `CCCCC1CN(c2ccccc2)c2cc(OC)c(CSC(C)(C)C(=O)O)cc2S(=O)(=O)N1C` (racemic) [Example 37, 2-(((3-butyl-7-methoxy-2-methyl-1,1-dioxido-5-phenyl-2,3,4,5-tetrahydro-1,2,5-benzothiadiazepin-8-yl)methyl)thio)-2-methylpropanoic acid], the pIC50 is 7.68 on hLBAT and below 5.00 on hIBAT.
As for `CCCCC1(CC)CN(c2ccccc2)c2cc(SC)c(CSCC(=O)O)cc2S(=O)(=O)N1` (single isomer, unassigned) [10, enantiomer 2], the pIC50 on hIBAT was 8.77.
The same measure, in the same setting: in the case of `CCCCC1(CC)CN(c2ccccc2)c2cc(OC)c(CSCC(=O)O)cc2S(=O)(=O)N1` (single isomer, unassigned) [45, enantiomer 2] it was 8.49.
